Our source for the TGI and GI50 values is PubChem BioAssay (NCI).

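Cells were grown in 96-well plates and exposed to each compound for 48 hours at five concentrations; endpoints were interpolated linearly between bracketing concentrations, or set to the highest concentration if not reached. GI50 is the concentration that inhibits growth by half. TGI: total growth inhibition.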

Some test systems named below: CAKI-1 renal; HL-60(TB) leukemia; LOX IMVI melanoma; RPMI-8226 leukemia; RXF 393 renal; SK-OV-3 ovarian; SNB-19 CNS; SNB-75 CNS; ACHN renal.
What all share (assay): growth of human tumour cells (NCI), 48 h

With `CC(=O)C(=Cc1cn(C)c(=O)n(C)c1=O)C(C)=O`, the TGI in the assay on CAKI-1 renal came to 224 µM; in the assay with HL-60(TB) leukemia, 271 µM; in the assay on LOX IMVI melanoma, 171 µM; in the assay with RPMI-8226 leukemia, 284 µM; in the assay on RXF 393 renal, 148 µM; with SK-OV-3 ovarian it was 327 µM. The TGI came to 414 µM in the assay with SNB-19 CNS and 240 µM in the assay with SNB-75 CNS.
Turning to `CC1=C(CO)C(=O)OC(C(C)C2CCC3C4CC5OC56C(O)C(N5CC5)=CC(=O)C6(C)C4CCC23C)C1` (centres undefined), the TGI in the assay on ACHN renal amounted to 19.5 µM; in the assay with HL-60(TB) leukemia, 6.08 µM; in the assay with LOX IMVI melanoma, 31.1 µM; in the assay on RPMI-8226 leukemia it was 17.8 µM; in the assay on RXF 393 renal, 26.9 µM; in the assay with SNB-19 CNS it was 9.56 µM. This molecule showed a TGI with SNB-75 CNS of 18.6 µM.
`C=C(C)C1CC(=O)C(C)=C(O)C1` (centres undefined): the TGI in the assay on ACHN renal, in the assay with CAKI-1 renal, in the assay with HL-60(TB) leukemia, with LOX IMVI melanoma, in the assay with SK-OV-3 ovarian and in the assay with SNB-19 CNS was over 100 µM throughout. The same molecule came in with a TGI with SNB-75 CNS of over 100 µM.
Regarding `NC(=O)CCC(N=c1c2ccccc2n(O)c2ccccc12)C(=O)O` (centres undefined), the TGI in the assay with ACHN renal is over 100 µM; in the assay with HL-60(TB) leukemia, over 100 µM; in the assay on LOX IMVI melanoma, over 100 µM; with RPMI-8226 leukemia, 97.3 µM; in the assay with SK-OV-3 ovarian, over 100 µM; in the assay on SNB-19 CNS, over 100 µM. In addition, in the assay with SNB-75 CNS, the TGI was over 100 µM.
For the molecule `O=C1Nc2ccccc2/C1=C\c1c(Cl)n(-c2ccccc2)c2ccccc12`, the TGI is 29.7 µM with ACHN renal; 21.9 µM in the assay with CAKI-1 renal; over 100 µM with HL-60(TB) leukemia; 17.8 µM with LOX IMVI melanoma; over 100 µM with RPMI-8226 leukemia; 10.9 µM in the assay on RXF 393 renal. Besides, the TGI came to 24 µM with SK-OV-3 ovarian, 13.3 µM in the assay on SNB-19 CNS and 7.03 µM in the assay on SNB-75 CNS.
For the molecule `CC(C)CCCC(C)[C@H]1CCC(C2C[C@@H](O)[C@@H]3CC(O)[C@@H](O)C[C@]3(CO)C2=O)[C@]1(C)CCO` (some centres undefined), the TGI with HL-60(TB) leukemia was 38.6 µM; with LOX IMVI melanoma, 39.3 µM; with RPMI-8226 leukemia, over 100 µM; in the assay on RXF 393 renal it was 53.3 µM; with SK-OV-3 ovarian, 67.1 µM; in the assay with SNB-19 CNS it was 96.3 µM. The TGI with SNB-75 CNS stood at 48.7 µM.
In the case of `O=C1c2ccccc2-c2nc3ccncc3n21`, the TGI in the assay on ACHN renal, in the assay on CAKI-1 renal, in the assay with HL-60(TB) leukemia, in the assay with RPMI-8226 leukemia, in the assay on RXF 393 renal and in the assay on SK-OV-3 ovarian was over 100 µM in each case. For the same molecule, the TGI with SNB-19 CNS and in the assay on SNB-75 CNS was over 100 µM throughout.
With `COc1ccccc1NC(=O)C(=O)C(C(=O)c1ccccc1F)C1OC(=O)c2ccccc21` (centres undefined), the TGI in the assay with ACHN renal was over 100 µM; in the assay with CAKI-1 renal, 86.7 µM; in the assay with HL-60(TB) leukemia it was 56.5 µM; in the assay on LOX IMVI melanoma, 39.2 µM; with RPMI-8226 leukemia, 69.6 µM; in the assay on RXF 393 renal, 68.4 µM. For the same molecule, the TGI with SK-OV-3 ovarian was 99.7 µM; in the assay on SNB-19 CNS, 64 µM; in the assay on SNB-75 CNS it was 62.8 µM.
For the molecule `C[s+]1c2ccccc2c2ccccc21`, the TGI in the assay with ACHN renal, with HL-60(TB) leukemia, with LOX IMVI melanoma, in the assay with RPMI-8226 leukemia, in the assay with RXF 393 renal and in the assay with SNB-19 CNS was over 100 µM in each case.
Take `O=C1c2cc3c(cc2-c2c1c1cc(F)c(F)cc1c(=O)n2CCCn1ccnc1)OCO3`: the GI50 with ACHN renal is under 0.01 µM; with CAKI-1 renal it was under 0.01 µM; in the assay on HL-60(TB) leukemia, 0.0113 µM; in the assay on RPMI-8226 leukemia, 0.0253 µM; with RXF 393 renal, 0.036 µM; in the assay on SNB-19 CNS, under 0.01 µM. For the same molecule, the GI50 in the assay on SNB-75 CNS was under 0.01 µM. The TGI with ACHN renal was 0.134 µM; with CAKI-1 renal, 1.42 µM; with HL-60(TB) leukemia, 16.6 µM; in the assay with RPMI-8226 leukemia, 0.673 µM; in the assay with RXF 393 renal it was 0.169 µM; in the assay on SNB-19 CNS, over 100 µM. In the assay with SNB-75 CNS, the TGI amounted to 0.11 µM.
Regarding `CCOc1ccc2nc(NC(=O)C(=O)C(C(=O)c3ccccc3F)C3OC(=O)c4ccccc43)sc2c1` (centres undefined), the TGI is over 100 µM with ACHN renal; 75.3 µM in the assay with CAKI-1 renal; 50.1 µM in the assay on HL-60(TB) leukemia; 90 µM in the assay with RPMI-8226 leukemia; 38.3 µM in the assay with RXF 393 renal; 55.1 µM with SK-OV-3 ovarian. Besides, the TGI worked out at 40.2 µM in the assay with SNB-19 CNS and 46.4 µM in the assay with SNB-75 CNS.
As to `CC1=NN(C(=O)CC(=O)Nc2cccc(C)c2)C(=O)C1N=Nc1ccc(S(=O)(=O)CCOS(=O)(=O)O)cc1` (centres undefined), the TGI was 17.1 µM with ACHN renal; 2.96 µM with CAKI-1 renal; over 100 µM with HL-60(TB) leukemia; 5.47 µM in the assay on LOX IMVI melanoma; over 100 µM in the assay with RPMI-8226 leukemia; 22 µM in the assay on RXF 393 renal. Moreover, the TGI with SK-OV-3 ovarian turned out to be 17 µM; with SNB-19 CNS, 22.3 µM; in the assay with SNB-75 CNS, 19.7 µM.
